From patent US20250223610A1, “MEASUREMENT OF SOMATIC L1 RETROTRANSPOSITION ACTIVITY” (SZEGEDI BIOLÓGIAI KUTATÓKÖZPONT, priority 2022, published 2025)
“Also recorded” adds a separate entry of the source.

Experiments:
[1] = tested on: somatic L1 retrotransposition; assay: FACS measurement of EGFP-positive hepatocytes isolated from ORFeus carrying Fah-/- mice; conditions: 1 million hepatocytes per sample; Decitabine 1 mg/kg IP twice weekly
Protocol: For evaluating alternative detection methods we investigated the outcome of Decitabine (5-aza-2′-deoxycytidine) treatments in the assay of the invention. 10 Fah^−/− animals were injected hydrodynamically and after NTBC withdrawal, 5 were started on Decitabine and 5 animals were kept without drug treatment as a control group. Under our current drug treatment regime administration of drugs starts at the same time as NTBC withdrawal.
To test this approach, 2-2 animals from Decitabine-treated and control experimental groups were subjected to liver perfusion and hepatocyte isolation.
Mice were housed under 12 h light-dark cycle at 22° C. with free access to water and regular rodent chow. […] Fah^−/− mice were treated with 8 mg/l Orfadin® (Nitisinone, NTBC) (Swedish Orphan Biovitrum) in drinking water. NTBC was withdrawn after hydrodynamic plasmid delivery. […] Dosing, scheduling, and the route of administration of all drugs and chemical compounds were determined according to the manufacturer's instructions and literature data. […] The body weight of the mice was monitored continuously. […]
Procurement of liver for hepatocyte isolation was done under sodium pentobarbital (Nembutal) (Sigma Aldrich) anaesthesia. […] Cell numbers were determined using a Burker chamber. Cell viability was determined by trypan blue exclusion test. […]

[2] = tested on: somatic L1 retrotransposition; assay: SYBR Green-based intronless EGFP qPCR on liver DNA of ORFeus reporter bearing Fah-/- mice; assay type: in vivo; conditions: 1 mg/kg IP twice weekly from NTBC withdrawal; liver samples after three months; preliminary results
Text: Multiple qPCR-based methods have already been published offering the possibility to measure the amount of intron-free EGFP copies produced during retrotransposition of the ORFeus reporter (Mita, Sun et al. 2020). Based on these published methods, we have also started to quantify our results.
NTBC was withdrawn after hydrodynamic plasmid delivery.
To measure the retrotransposition events of the synthetic L1 element we carried out genomic exon-exon junction qPCR analysis of the spliced, intronless EGFP using two different qPCR detection chemistry. SYBR Green based qPCR was done using PerfeCTa SYBR Green SuperMix (Quantabio). Cycling conditions were as follows: 95° C. for 7 min, 4 cycles of 10 s at 95° C., 15 s at 66° C. (−1° C./cycle, no acquisition), followed by 40 cycles of 5 s at 95° C., 10 s at 62° C. The following primers were used: […]
Probe-based qPCR detection was done as previously described (Mita, Sun et al. 2020) using PerfeCTa qPCR ToughMix (Quantabio). All qPCR reactions were performed on a Rotor-Gene Q instrument (Qiagen) in triplicates using 87 ng of gDNA. Analysis was carried out with the Rotor-Gene Q software (Qiagen). Relative changes in expression levels were calculated using the ΔCT method (Livak and Schmittgen 2001) SYBR Green and probe-based qPCR results were normalized to measurements of the Olfr16 and Rpl21 internal control genes, respectively.

[3] = tested on: somatic L1 retrotransposition; assay: Stereomicroscopic macrovisualization of EGFP positive hepatocyte colonies in liver of Fah-/- mice carrying the ORFeus reporter; assay type: in vivo; conditions: 5 mg/kg IP twice weekly from NTBC withdrawal; livers examined after 3 months
Text: In these proof of concept studies the present inventors have used an L1-ORF2-free ORFeus and amiR-free construct variant (shown in FIG. 3B). First, the ORFeus-expressing transposon and the hyperPB transposase helper plasmid were co-delivered hydrodynamically into the liver of Fah^−/− mice, then the curative drug nitisinone (NTBC) was withdrawn (FIG. 2A). In those hepatocytes where hydrodynamic transfection is successful, the hyperactive transposase helper enzyme is likely to catalyse the “cut and paste” transposition reaction presumably leading to an integration into the host chromosomes (Skipper, Andersen et al. 2013).
FICZ was administered by intraperitoneal (IP) injection at a dose of 5 mg/kg body weight twice weekly. […]
The results of EGFP macrovisualization were summarized in FIG. 5 for the control, FICZ-treated and MeIQx-treated experimental groups. The number of EGFP-positive hepatocyte cell colonies detectable by stereomicroscopy in the liver of each animal was counted and per-animal values were plotted on a box diagram. […]
Pictures of whole mouse livers were taken with an Olympus SZX12 fluorescence stereozoom microscope equipped with a 100 W mercury lamp and filter sets for selective excitation and emission of GFP and mCherry.

Tp53 gene = assay: Tp53 silencing by amiR element; set-up: species or system mouse
Text: For example, silencing of the Tp53 gene can attenuate the P53 L1 sensor (Ardeljan, Steranka et al. 2020) (FIG. 1B), without completely inactivating it. Such an effect is predicted to increase the tolerance of somatic cells to ORFeus reporter expression. We have developed three efficient Tp53 silencing amiR elements. Of these, amiR-mP53/1 capable to produce approximately 20% remaining Tp53 gene expression is currently being tested in our laboratory. Presumably, it will be able to increase the sensitivity of the somatic L1 activity measuring system. However, its application is not essential. Our results so far, at least in our in vivo system, are in conflict with the finding of the authors describing the role of the P53 sensor stating that wild-type retinal pigment epithelium-1 (RPE) cells undergo a TP53-dependent growth arrest in response to L1 (Ardeljan, Steranka et al. 2020). In contrast, ORFeus expressing mouse liver cells are able to regenerate the liver in the absence of p53 silencing (FIG. 3B).

Nc1ncn([C@H]2C[C@H](O)[C@@H](CO)O2)c(=O)n1 [Decitabine, 5-aza-2′-deoxycytidine]
number of EGFP-expressing cells by FACS compared to controls [1]: higher number; also recorded: confirmed the results obtained with qPCR | induction of somatic L1 retrotransposition (amount of intron-free EGFP copies, normalized to Olfr16) [2]: weak inducer

O=Cc1c2c(cc3c1=Nc1ccccc1-3)=Nc1ccccc1-2 [FICZ, 6-Formylindolo[3,2-b]carbazole]
number of EGFP fluorescent (ORFeus retrotransposition bearing) hepatocyte colonies in liver as compared to non-drug-treated controls [3]: more EGFP fluorescent colonies; also recorded: higher number

Cc1cnc2ccc3c(nc(N)n3C)c2n1 [MeIQx, 2-Amino-3,8-Dimethylimidazo[4,5.f]Quinoxaline]
number of EGFP fluorescent (ORFeus retrotransposition bearing) hepatocyte colonies in liver as compared to non-drug-treated controls [3]: higher number

B1: amiR-mP53/1: Tp53 silencing artificial microRNA (amiR) element, SEQ ID NO: 19 (nucleic acid)
DNA: GGGCCCGTGTACCGGTGTGTGAGCTCTGTTTGAATGAGGCTTCAGTACTTTACAGAATCGTTGCCTGCACATCTTGGAAACACTTGCTGGGATTACTTCTTCAGGTTAACCCAACAGAAGGCTCGAGAAGGTATATTGCTGTTGACAGTGAGCGATCACTGCATGGACGATCTGTTTAGTGAAGCCACAGATGTAAACAGATCGTCCATGCAGTGAGTGCCTACTGCCTCGGACTTCAAGGGGCTACTTTAGGAGCAATTATCTTGTTTACTAAAACTGAATACCTTGCTATCTCTTTGATACATTTTTACAAAGCTGAATTAAAATGGTATAAATTAAATCACTTTGTCGACGTGTTCTAGAGTGTGCCGGC
modifications: misc_feature 27..121 Endogenous miR30a 5' flanking; misc_feature 155..176 Target with N1 A mismatch; stem_loop 177..195 loop; misc_feature 196..217 guide; misc_feature 238..347 Endogenous miR30a 3' flanking; amiR-mP53/1 element
remaining Tp53 gene expression (Tp53 gene): approximately 20%
